In assay [1] the target is human polyclonal IgG. Briefly: Isothermal titration calorimetry (ITC) of IgG:ligand binding in solution. To be noted: 25° C, PBS pH 7.4, peptide in solution, independent binding model. On the procedure: Measurements of IgG-binding affinity in solution by isothermal titration calorimetry (ITC): Experimental determination of the binding free energy of the IgG:WQRHGI (SEQ ID NO:1) complex was performed by ITC using a Nano ITC Low Volume calorimeter (TA Instruments, New Castle, DE). […] All solutions were filtered through a 0.22 p.m syringe filter prior to use. Ten injections were performed for each measurement. Background energy from peptide dilution was determined by performing 10 injections of 5 μL of a 2 mg/mL solution of WQRHGI (SEQ ID NO:1) in PBS pH 7.4. The titration data were analyzed using NanoAnalyze software (TA Instruments) and plotted using an independent fitting, which fits the resultant Wiseman plot with parameters corresponding to a non-competitive single-site binding phenomenon in order to calculate the binding affinity (K(D(ITC)), and the stoichiometry (N) of the interaction. A constant blank was also utilized in the fitting to account for the heat of dilution of the IgG substrate.
Characterization of binding affinity for IgG-binding peptide variants WQRHGI (SEQ ID NO:1) and MWRGWQ (SEQ ID NO:2) in non-competitive conditions: Candidate peptide ligands WQRHGI (SEQ ID NO:1) and MWRGWQ (SEQ ID NO:2) were selected for experimental evaluation of IgG binding in non-competitive conditions (pure IgG in solution). […]
(Isothermal titration calorimetry measures the heat released or taken up as one component is titrated into another.)

The test system of assay [2] is human polyclonal IgG. Briefly: Static binding isotherm on WorkBeads adsorbents, Langmuir fit. To be noted: WorkBeads adsorbent, PBS pH 7.4, Langmuir fit. An excerpt:
Measurements of static and dynamic binding capacity: […] NO:2)-Workbeads and […] NO:30)-Workbeads were characterized in terms of static and dynamic binding capacity respectively by batch and breakthrough binding studies. The peptides […] NO:3) and […] NO:4) were not selected for further studies due to their low selectivity and low yield, respectively. […] The resin was pelleted by centrifugation and the supernatant removed. […] The resulting fractions were combined and analyzed by BCA assay to quantify the unbound IgG and, accordingly, the amount of IgG adsorbed. The resulting data were fit to a Langmuir isotherm to determine the values of Qmax and KD(Solid). […] The amount of unbound IgG was determined by analyzing the supernatants via Micro BCA Protein Assay Kit. The amount of bound IgG per volume of resin (Q) was determined by mass balance and plotted against the corresponding equilibrium concentration of unbound IgG in solution (CIgG). The data were fit to a Langmuir isotherm model, thus providing a value of maximum binding capacity (Qmax) and dissociation constant (KD).

Assay [3] has as its system human IgG. The assay is classed as binding. The conditions noted are these: peptide on Toyopearl AF-amino-650M, 30 min, room temperature. As to the method:
Measurement of IgG binding by peptide-based chromatographic adsorbents: For initial studies, 35 mg of MWRGWQ (SEQ ID NO:2)-Toyopearl, RHLGWF (SEQ ID NO:3)-Toyopearl, WQRHGI (SEQ ID NO:1)-Toyopearl, GWLHQR (SEQ ID NO:4)-Toyopearl, and HWRGWV (SEQ ID NO:18)-Toyopearl (control) resins were equilibrated in PBS pH 7.4, reaching a swollen volume of 0.1 mL, and subsequently incubated with 1 mg/mL IgG in 0.205 mg/mL CHO cell culture supernatant for 30 minutes. The resins were subsequently washed several times with PBS to remove non-specifically bound proteins. Elution was performed with 100 mM glycine buffer pH 2.5. Flowthrough and elution fractions were collected and analyzed by SDS PAGE under reducing conditions. The resulting gels were stained with Coomassie staining. Further, 25 mg of the adsorbents MWRGWQ (SEQ ID NO:2)-Toyopearl, NIFRGWQ (SEQ ID NO:21)-Toyopearl, MWRAWQ (SEQ ID NO:5)-Toyopearl, MWRGFQ (SEQ ID NO:7)-Toyopearl, MWRGWN (SEQ ID NO:22)-Toyopearl, (NorL) WRGWQ (SEQ ID NO:23)-Toyopearl, MGRGWQ (SEQ ID NO:24)-Toyopearl, MWRWQ (SEQ ID NO:6)-Toyopearl, MWRGGQ (SEQ ID NO:26)-Toyopearl, GWRGWQ (SEQ ID NO:8)-Toyopearl, WQRHGI (SEQ ID NO:1)-Toyopearl, WNRHGI (SEQ ID NO:12)-Toyopearl, WQRAGI (SEQ ID NO:28)-Toyopearl, WQRHAI (SEQ ID NO:11)-Toyopearl, WQRHGL (SEQ ID NO:9)-Toyopearl, FQRHGI (SEQ ID NO:29)-Toyopearl, and WQRHGV (SEQ ID NO:10)-Toyopearl resins were equilibrated in PBS pH 7.4, reaching a swollen volume of 0.1 mL, and subsequently incubated with 1 mg/mL IgG in PBS at pH 7.4 for 30 minutes. The amount of unbound IgG in the supernatant samples was quantified by Bradford assay and utilized to determine the IgG binding % by the peptide variants.
A limited library of residue-by-residue changes confirmed the importance of each residue in peptides WQRHGI (SEQ ID NO:1) and MWRGWQ (SEQ ID NO:2) in reducing the binding energy between the peptide and the IgG target. […] This was accomplished by designing and constructing an ensemble of 20 variants of peptides WQRHGI (SEQ ID NO:1) and MWRGWQ (SEQ ID NO:2). Selected residues in positions 1-6 were mutated. The peptide variants were synthesized directly on Toyopearl AF-amino-650M resin via Fmoc/tBu chemistry. The resulting adsorbents were incubated with a solution of human IgG at 2 mg/mL at a ratio of 1 mL of resin per 3.5 mL of solution for 30 min at room temperature. The residual concentration of IgG in solution was determined by Bradford concentration assay of the supernatants and utilized to calculate the amounts of bound IgG per volume of resin; Table 7 reports the % binding, defined as mg IgG bound by variant/mg IgG bound by original sequence (either WQRHGI (SEQ ID NO:1) or MWRGWQ (SEQ ID NO:2))×100%, of each sequence variant.

With WQRHGI, the equilibrium dissociation constant (Kd) came to 58.8 µM in assay [1] and 3.2 µM in assay [2] (read-out: KD(Solid)). The same substance had a Qmax in assay [2] of 52.6 mg IgG/mL resin. In addition, the “% Binding (mg IgG bound by variant/mg IgG bound by original sequence × 100%)” value in assay [3] was determined as 100.00%.

As usually defined, the Kd is the constant that tells how readily two partners part at equilibrium.

The values are drawn from patent US20230399358A1, “IMMUNOGLOBULIN PURIFICATION PEPTIDES AND THEIR USE” (North Carolina State University, priority 2019, published 2023).
